pIC50: −log10 of the molar value.
Test system: Plasmodium berghei
Assay: Luciferase/luciferin-expressing antifolate-resistant parasites were used to infect a culture of HepG2 cells that were pre-incubated with compounds. Infected hepatocytes emit light due to the luciferase reaction. Assay results are presented as the percent inhibition of light emission compared to control. […]
Assay type: functional
Conditions: sporozoite; for IC90: read-out: LUCIFERASE INFECTION ASSAY - IC90
[1] = read-out: LUCIFERASE INFECTION ASSAY - IC50

SMILES | IC90 | also measured
CNc1ccccc1C(C)(C)c1cc(NC(=O)C2CCCC2)sc1C(=O)c1ccc(Cl)cc1 | > 10 µM | pIC50 (HEPG2TOX_HILL_SLOPE 6.51, HEPG2TOX_R_SQUARED 0.0707, read-out: LUCIFERASE INFECTION ASSAY - IC50): < 5.00
Cc1nn2c(=O)c(Cc3ccccc3Cl)c(C)[nH]c2c1-c1ccccc1 | 2.97 µM | pIC50 [1]: 5.57
O=c1cc(CN2CCCc3ccc(C(F)(F)F)cc32)nc2sccn12 | > 10 µM | pIC50 [1]: < 5.00
COc1ccc(S(=O)(=O)NN(C)c2nc3ccccc3nc2C(F)(F)F)cc1 | > 8 µM | pIC50 [1]: 5.29
CN(C)CCNC(=O)c1ccc(-c2cn3c(-c4ccc(Cl)cc4)cnc3cn2)cc1 | 3.79 µM | pIC50 (HEPG2TOX_HILL_SLOPE 1.7, HEPG2TOX_R_SQUARED 0.889, PBLUC_HILL_SLOPE 9.39, PBLUC_R_SQUARED 0.389, read-out: LUCIFERASE INFECTION ASSAY - IC50): 5.52
CC(C)(C)c1cc(CCC(=O)NNC(=S)NC(=O)c2ccccc2)cc(C(C)(C)C)c1O | 3.76 µM | pIC50 (HEPG2TOX_HILL_SLOPE 3.85, HEPG2TOX_R_SQUARED 0.996, PBLUC_HILL_SLOPE 11.4, PBLUC_R_SQUARED 0.664, read-out: LUCIFERASE INFECTION ASSAY - IC50): 5.51
COc1cc(-c2cc3[nH]c4ccccc4n3c(=O)c2Sc2ccc([N+](=O)[O-])cc2)cc(OC)c1OC | 9.18 µM | pIC50 (PBLUC_HILL_SLOPE 1.34, PBLUC_R_SQUARED 0.513, read-out: LUCIFERASE INFECTION ASSAY - IC50): 5.75
Cc1ccc(Nc2nc(C(F)(F)F)nc3ccccc23)cc1S(=O)(=O)N(C)C | > 10 µM | pIC50 [1]: < 5.00
CCN1CCc2nc(NC(=O)C3(c4ccc(Br)cc4)CC3)sc2C1 | 3.64 µM | pIC50 (HEPG2TOX_HILL_SLOPE 12.5, HEPG2TOX_R_SQUARED 0.865, PBLUC_HILL_SLOPE 12.4, PBLUC_R_SQUARED 0.642, read-out: LUCIFERASE INFECTION ASSAY - IC50): 5.52
Cc1ccc(C(CN2CCOCC2)Nc2nc(C(F)(F)F)nc3ccccc23)cc1 (stereo not given) | 3.63 µM | pIC50 (FFLUC_HILL_SLOPE 0.43, FFLUC_R_SQUARED 0.0433, PBLUC_HILL_SLOPE 12.3, PBLUC_R_SQUARED 0.751, read-out: LUCIFERASE INFECTION ASSAY - IC50): 5.52
Oc1cccnc1NC(c1ccccc1F)c1ccc2cccnc2c1O (stereo not given) | 9.5 µM | pIC50 (FFLUC_HILL_SLOPE 2.5, FFLUC_R_SQUARED 0.451, HEPG2TOX_HILL_SLOPE 1.9, HEPG2TOX_R_SQUARED 0.963, PBLUC_HILL_SLOPE 13, PBLUC_R_SQUARED 0.418, read-out: LUCIFERASE INFECTION ASSAY - IC50): 5.10
O=[N+]([O-])c1ccc(NC2C=CS(=O)(=O)C2)c(Cl)c1 (stereo not given) | > 10 µM | pIC50 (HEPG2TOX_HILL_SLOPE 13.7, HEPG2TOX_R_SQUARED 0.786, read-out: LUCIFERASE INFECTION ASSAY - IC50): < 5.00
CCCN1CCN(c2c3ccc(Cl)cc3nc3ccc(OC)cc23)CC1 | > 10 µM | pIC50 [1]: < 5.00
COc1ccc(CNC(N)=O)cc1 | > 18.3 µM | pIC50 [1]: < 4.74
CCNC(=O)NC(=O)C(c1ccccc1)n1nc(C(=O)O)c2ccccc2c1=O (stereo not given) | > 10 µM | pIC50 [1]: < 5.00
Cc1ccc(C(C)CCN2CCC3(CC2)C(=O)N(CCCc2ccncc2)C(=O)N3CCC(C)C)o1 (stereo not given) | > 6.67 µM | pIC50 (PBLUC_HILL_SLOPE 13.4, PBLUC_R_SQUARED 0.376, read-out: LUCIFERASE INFECTION ASSAY - IC50): 5.19
O=C(Nc1ccc(Cl)c(C(F)(F)F)c1)Nc1ccc2nc(-c3ccsc3)nn2c1 | 9.25 µM | pIC50 (HEPG2TOX_HILL_SLOPE 8.17, HEPG2TOX_R_SQUARED 0.277, PBLUC_HILL_SLOPE 11.1, PBLUC_R_SQUARED 0.655, read-out: LUCIFERASE INFECTION ASSAY - IC50): 5.12
CC(C(=O)NCC1CCCCC1)N1CCN(c2ccc(F)cc2)CC1 (stereo not given) | > 10 µM | pIC50 (FFLUC_HILL_SLOPE 3.15, FFLUC_R_SQUARED 0.597, read-out: LUCIFERASE INFECTION ASSAY - IC50): < 5.00
CN(C)C(=O)c1ccc(-c2ccnc3n[nH]c(-c4ccc(N(C)C)cc4)c23)cc1 | 5.06 µM | pIC50 (HEPG2TOX_HILL_SLOPE 14.4, HEPG2TOX_R_SQUARED 0.857, PBLUC_HILL_SLOPE 6.94, PBLUC_R_SQUARED 0.445, read-out: LUCIFERASE INFECTION ASSAY - IC50): 5.43
CCCn1c(SCC(=O)NCC23CC4CC(CC(C4)C2)C3)nc2cc(Cl)ccc2c1=O | > 10 µM | pIC50 (FFLUC_HILL_SLOPE 1.09, FFLUC_R_SQUARED 0.071, read-out: LUCIFERASE INFECTION ASSAY - IC50): < 5.00

SMILES | IC90 | also measured
Cc1ccc(/C=C/C(=O)NC2=NCCS2)c(Br)c1 | > 10 µM | pIC50 (PBLUC_HILL_SLOPE 0.976, PBLUC_R_SQUARED 0.447, read-out: LUCIFERASE INFECTION ASSAY - IC50): 5.46
Cc1sc2ncnc(N/N=C/c3cn(-c4ccccc4)nc3-c3ccc4c(c3)OCCO4)c2c1C | 3.63 µM | pIC50 (HEPG2TOX_HILL_SLOPE 4.65, HEPG2TOX_R_SQUARED 0.952, PBLUC_HILL_SLOPE 26.5, PBLUC_R_SQUARED 0.19, read-out: LUCIFERASE INFECTION ASSAY - IC50): 5.48
COc1cn(-c2ccccc2)nc1C(=O)N1CCc2ccccc21 | 0.243 µM | pIC50 (HEPG2TOX_HILL_SLOPE 1.58, HEPG2TOX_R_SQUARED 0.907, PBLUC_HILL_SLOPE 2.39, PBLUC_R_SQUARED 0.888, read-out: LUCIFERASE INFECTION ASSAY - IC50): 7.01
COC(=O)c1ccc(N2CCN(c3ccccc3Cl)CC2)nc1 | > 9.95 µM | pIC50 (HEPG2TOX_HILL_SLOPE 4.29, HEPG2TOX_R_SQUARED 0.95, PBLUC_HILL_SLOPE 9.99, PBLUC_R_SQUARED 0.342, read-out: LUCIFERASE INFECTION ASSAY - IC50): 5.08
Cc1[nH]c2ccc(F)cc2c(=O)c1I | 1.32 µM | pIC50 (PBLUC_HILL_SLOPE 10, PBLUC_R_SQUARED 0.604, read-out: LUCIFERASE INFECTION ASSAY - IC50): 5.97
CC(C)NC(=O)c1c(NC(=O)c2ccc(Cl)cc2Cl)nc2ccccn12 | 3.78 µM | pIC50 (FFLUC_HILL_SLOPE 0.259, FFLUC_R_SQUARED 0.0893, HEPG2TOX_HILL_SLOPE 15, HEPG2TOX_R_SQUARED 0.814, PBLUC_HILL_SLOPE 11.2, PBLUC_R_SQUARED 0.466, read-out: LUCIFERASE INFECTION ASSAY - IC50): 5.51
Cc1nc(C(=O)NNC(=O)c2ccc(Cl)cc2)cs1 | > 11.2 µM | pIC50 (PBLUC_HILL_SLOPE 2.52, PBLUC_R_SQUARED 0.734, read-out: LUCIFERASE INFECTION ASSAY - IC50): < 4.95
CCOc1ccc(NS(=O)(=O)c2ccc(NC(=O)c3ccc(OC)c(S(=O)(=O)N4CCCCC4C)c3)cc2)cc1 (stereo not given) | > 10 µM | pIC50 (PBLUC_HILL_SLOPE 11.8, PBLUC_R_SQUARED 0.201, read-out: LUCIFERASE INFECTION ASSAY - IC50): 5.03
O=S(=O)(c1ccccc1)N1[C@@H]2CC[C@@H](C2)[C@H]1c1nc2c(OCCC3CCCCC3)cccc2[nH]1 | > 10 µM | pIC50 (FFLUC_HILL_SLOPE 8.97, FFLUC_R_SQUARED 0.445, PBLUC_HILL_SLOPE 2.11, PBLUC_R_SQUARED 0.35, read-out: LUCIFERASE INFECTION ASSAY - IC50): 5.21
O=C(c1cccs1)N1CCN(C2c3ccccc3-c3ccccc32)CC1 | > 9.15 µM | pIC50 (PBLUC_HILL_SLOPE 11.4, PBLUC_R_SQUARED 0.0886, read-out: LUCIFERASE INFECTION ASSAY - IC50): < 5.04
CCn1c2ccccc2c2cc(NC(=O)c3ccncc3)ccc21 | 3.82 µM | pIC50 (HEPG2TOX_HILL_SLOPE 3.45, HEPG2TOX_R_SQUARED 0.806, PBLUC_HILL_SLOPE 11.3, PBLUC_R_SQUARED 0.493, read-out: LUCIFERASE INFECTION ASSAY - IC50): 5.50
Cc1ccc(-n2c(SCc3nc4ccccc4c(=O)o3)nnc2-c2ccccc2)cc1C | > 10 µM | pIC50 [1]: < 5.00
Cc1cc(Cl)ccc1S(=O)(=O)N(Cc1ccncc1)C1CC1 | 7.99 µM | pIC50 (PBLUC_HILL_SLOPE 1.42, PBLUC_R_SQUARED 0.462, read-out: LUCIFERASE INFECTION ASSAY - IC50): 5.77
O=C(Nc1ccc(-n2nncc2-c2ccccc2)cc1)c1ccc(S(=O)(=O)N2CCCCC2)cc1 | 9.56 µM | pIC50 (FFLUC_HILL_SLOPE 38.4, FFLUC_R_SQUARED 0.244, HEPG2TOX_HILL_SLOPE 8, HEPG2TOX_R_SQUARED 0.798, PBLUC_HILL_SLOPE 2.57, PBLUC_R_SQUARED 0.825, read-out: LUCIFERASE INFECTION ASSAY - IC50): 5.39
Cc1cccc(C(=O)NC(C(=O)Nc2ccn(C)n2)C(C)C)c1 (stereo not given) | > 10 µM | pIC50 [1]: < 5.00
COc1c(C)cc(C(O)c2nc(-c3cccc4ccccc34)c[nH]2)cc1C (stereo not given) | > 9.21 µM | pIC50 (FFLUC_HILL_SLOPE 13.5, FFLUC_R_SQUARED 0.422, HEPG2TOX_HILL_SLOPE 8.48, HEPG2TOX_R_SQUARED 0.286, read-out: LUCIFERASE INFECTION ASSAY - IC50): < 5.04
O=C1C2=C(Nc3[nH]c(=O)[nH]c(=O)c3C2c2cccs2)c2ccccc21 (stereo not given) | > 10 µM | pIC50 (HEPG2TOX_HILL_SLOPE 0.543, HEPG2TOX_R_SQUARED 0.515, read-out: LUCIFERASE INFECTION ASSAY - IC50): < 5.00
O=C1CC(c2ccc(Cl)cc2)Cc2c1cnn2-c1ccc(Cl)cc1 (stereo not given) | > 9.24 µM | pIC50 (HEPG2TOX_HILL_SLOPE 2.3, HEPG2TOX_R_SQUARED 0.887, PBLUC_HILL_SLOPE 1.56, PBLUC_R_SQUARED 0.715, read-out: LUCIFERASE INFECTION ASSAY - IC50): 5.54
Cn1c(N)c(Sc2ccccc2[N+](=O)[O-])c(=O)n(C)c1=O | > 10 µM | pIC50 [1]: < 5.00
O=C(Nc1nc(=O)n(C(=O)c2cccs2)s1)c1ccccc1 | > 9.96 µM | pIC50 [1]: < 5.00

— ChEMBL document CHEMBL4483862, “Open-source discovery of chemical leads for next-generation chemoprotective antimalarials” (2018)
